From ChEMBL document CHEMBL3414550 (J Med Chem, 2015)

Legend:
[1] = Retention time of the compound by RP-HPLC analysis; format: physicochemical
Oxytocin receptor [2] = molecular target: T1, Oxytocin receptor (Homo sapiens, UniProt P30559); experiment: Binding affinity to SNAP-tagged oxytocin receptor (unknown origin) expressed in HEK293 cells by TR-FRET assay; format: cell-based
T1 sequence (P30559 whole entry): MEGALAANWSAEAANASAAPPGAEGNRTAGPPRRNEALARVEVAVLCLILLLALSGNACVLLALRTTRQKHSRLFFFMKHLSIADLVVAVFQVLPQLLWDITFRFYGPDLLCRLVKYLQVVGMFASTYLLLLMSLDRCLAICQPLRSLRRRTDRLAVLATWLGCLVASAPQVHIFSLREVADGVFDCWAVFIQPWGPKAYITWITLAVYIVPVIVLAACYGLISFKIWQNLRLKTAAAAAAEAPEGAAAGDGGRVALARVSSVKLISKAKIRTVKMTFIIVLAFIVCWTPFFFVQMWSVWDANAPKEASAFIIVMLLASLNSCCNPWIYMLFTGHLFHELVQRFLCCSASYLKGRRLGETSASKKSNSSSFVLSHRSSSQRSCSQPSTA

Vasopressin V1a receptor [3] = molecular target: T2, Vasopressin V1a receptor (Homo sapiens, UniProt P37288); experiment: Binding affinity to V1aR (unknown origin) expressed in HEK293 cells by TR-FRET assay; format: cell-based
Vasopressin V1b receptor = molecular target: T3, Vasopressin V1b receptor (Homo sapiens, UniProt P47901); experiment: Binding affinity to V1bR (unknown origin) expressed in HEK293 cells by TR-FRET assay; format: cell-based
T3 sequence (P47901 whole entry): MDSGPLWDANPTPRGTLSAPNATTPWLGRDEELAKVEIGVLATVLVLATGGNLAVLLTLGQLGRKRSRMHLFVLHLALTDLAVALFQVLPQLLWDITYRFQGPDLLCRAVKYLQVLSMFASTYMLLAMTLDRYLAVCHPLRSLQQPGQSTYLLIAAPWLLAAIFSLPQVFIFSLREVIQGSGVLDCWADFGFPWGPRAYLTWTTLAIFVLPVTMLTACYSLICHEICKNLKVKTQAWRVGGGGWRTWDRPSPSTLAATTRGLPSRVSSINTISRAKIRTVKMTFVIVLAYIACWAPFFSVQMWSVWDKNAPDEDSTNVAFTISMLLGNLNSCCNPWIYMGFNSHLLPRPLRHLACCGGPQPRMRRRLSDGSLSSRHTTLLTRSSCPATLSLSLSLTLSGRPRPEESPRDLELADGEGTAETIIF

Vasopressin V2 receptor [4] = molecular target: T4, Vasopressin V2 receptor (Homo sapiens, UniProt P30518); experiment: Binding affinity to V2R (unknown origin) expressed in HEK293 cells by TR-FRET assay; format: cell-based
Oxytocin receptor [5] = molecular target: T1, Oxytocin receptor; experiment: Binding affinity to SNAP-tagged oxytocin receptor (unknown origin) expressed in HEK293 cells assessed as association constant after 5 to 120 mins by TR-FRET assay; format: cell-based
Oxytocin receptor [6] = molecular target: T1, Oxytocin receptor; experiment: Binding affinity to SNAP-tagged oxytocin receptor (unknown origin) expressed in HEK293 cells assessed as dissociation constant after 5 to 120 mins by TR-FRET assay; format: cell-based
Homo sapiens = species on record: Homo sapiens; experiment: Selectivity ratio of Kd for V1aR (unknown origin) to Kd for SNAP-tagged oxytocin receptor (unknown origin)
Oxytocin receptor [7] = molecular target: T1, Oxytocin receptor; experiment: Binding affinity to OTR (unknown origin)
Vasopressin V1a receptor [8] = molecular target: T2, Vasopressin V1a receptor; experiment: Binding affinity to V1aR (unknown origin)
Vasopressin V2 receptor [9] = molecular target: T4, Vasopressin V2 receptor; experiment: Binding affinity to V2R (unknown origin)
Oxytocin receptor [10] = molecular target: T1, Oxytocin receptor; experiment: Competitive binding to SNAP-tagged oxytocin receptor (unknown origin) expressed in HEK293 cells incubated for 1 hr at RT followed by 4 hrs at 4 degC by TR-FRET assay in presence of 5-(3-(22-(3-carboxy-4-(3-oxo-3H-xanthen-9-yl)phenyl)-15,22-dioxo-2,5,8,11-tetraoxa-14,21-diazadocosyl)-5-(3-(2-chloro-4-fluorophenoxy)azetidin-1-yl)-4H-1,2,4-triazol-4-yl)-2-methoxypyridinium 2,2,2-trifluoroacetate; format: cell-based
Oxytocin receptor [11] = molecular target: T1, Oxytocin receptor; experiment: Competitive binding to SNAP-tagged oxytocin receptor (unknown origin) expressed in HEK293 cells incubated for 1 hr at RT followed by 4 hrs at 4 degC by TR-FRET assay in presence of 2-(5-(3-(1-(5-(3-(2-chloro-4-fluorophenoxy)azetidin-1-yl)-4-(6-methoxypyridinium-3-yl)-4H-1,2,4-triazol-3-yl)-15-oxo-2,5,8,11-tetraoxa-14-azaoctadecan-18-yl)-1-ethyl-3-methyl-5-sulfoindolin-2-ylidene)penta-1,3-dienyl)-1 …; format: cell-based

T2 sequence (P37288 whole entry): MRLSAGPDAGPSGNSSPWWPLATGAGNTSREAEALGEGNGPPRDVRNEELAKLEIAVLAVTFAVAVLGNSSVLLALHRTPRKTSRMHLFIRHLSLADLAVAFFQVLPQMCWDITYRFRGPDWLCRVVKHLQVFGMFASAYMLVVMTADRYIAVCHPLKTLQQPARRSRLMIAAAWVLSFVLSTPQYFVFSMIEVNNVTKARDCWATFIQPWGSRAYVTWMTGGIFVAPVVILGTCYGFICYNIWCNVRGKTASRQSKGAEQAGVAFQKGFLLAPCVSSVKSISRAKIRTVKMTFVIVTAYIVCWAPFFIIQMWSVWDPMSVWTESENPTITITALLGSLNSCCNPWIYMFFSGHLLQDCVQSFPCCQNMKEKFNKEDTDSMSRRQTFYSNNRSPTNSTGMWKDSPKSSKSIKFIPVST
T4 sequence (P30518 whole entry): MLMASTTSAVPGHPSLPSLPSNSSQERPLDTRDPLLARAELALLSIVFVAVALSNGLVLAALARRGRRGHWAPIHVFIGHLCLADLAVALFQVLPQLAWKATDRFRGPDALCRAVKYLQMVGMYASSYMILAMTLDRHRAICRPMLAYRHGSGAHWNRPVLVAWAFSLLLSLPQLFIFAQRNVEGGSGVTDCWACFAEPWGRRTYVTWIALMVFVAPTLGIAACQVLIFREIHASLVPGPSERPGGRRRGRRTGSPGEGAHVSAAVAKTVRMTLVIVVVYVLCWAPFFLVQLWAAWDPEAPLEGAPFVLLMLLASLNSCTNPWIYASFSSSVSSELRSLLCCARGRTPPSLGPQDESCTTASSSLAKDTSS

Compound | Retention_time [1] [min] | Kd (Oxytocin receptor [2]) [nM] | Kd (Vasopressin V1a receptor [3]) [nM] | Kd (Vasopressin V1b receptor) [nM] | Kd (Vasopressin V2 receptor [4]) [nM] | kon (Oxytocin receptor [5]) [×10⁶ /M/min] | koff (Oxytocin receptor [6]) [×10⁻³ /min] | Ratio (Homo sapiens) | Ki (Oxytocin receptor [7]) [nM] | Ki (Vasopressin V1a receptor [8]) [nM] | Ki (Vasopressin V2 receptor [9]) [nM] | Ki (Oxytocin receptor [10]) [nM] | Ki (Oxytocin receptor [11]) [nM]
COc1ccc(-n2c(COCCOCCOCCOCCOCCOCCOCCOCCNC(=O)CCCCCNC(=O)c3ccc(-c4c5ccc(=O)cc-5oc5cc(O)ccc45)c(C(=O)O)c3)nnc2N2CC(Oc3ccc(F)cc3Cl)C2)cn1.O=C(O)C(F)(F)F | 4.39 | 2.05 | > 1000 | > 1000 | > 1000 | – | – | – | – | – | – | – | –
COc1ccc(-n2c(COCCOCCOCCOCCNC(=O)CCCCCNC(=O)c3ccc(-c4c5ccc(=O)cc-5oc5cc(O)ccc45)c(C(=O)O)c3)nnc2N2CC(Oc3ccc(F)cc3Cl)C2)cn1.O=C(O)C(F)(F)F | 4.38 | 1.59 | > 1000 | > 1000 | > 1000 | 3.57 | 18.9 | – | – | – | – | – | –
CCN1\C(=C/C=C/C=C/C2=[N+](CC)c3cc(S(=O)(=O)[O-])ccc3C2(C)C)C(C)(CCCC(=O)NCCOCCOCCOCCOCCOCCOCCOCCOCc2nnc(N3CC(Oc4ccc(F)cc4Cl)C3)n2-c2ccc(OC)nc2)c2cc(S(=O)(=O)O)ccc21.O=C(O)C(F)(F)F (stereo not drawn) | 3.97 | 1.86 | > 1000 | > 1000 | 353 | – | – | – | – | – | – | – | –
CCN1\C(=C/C=C/C=C/C2=[N+](CC)c3cc(S(=O)(=O)[O-])ccc3C2(C)C)C(C)(CCCC(=O)ON2C(=O)CCC2=O)c2cc(S(=O)(=O)O)ccc21 (stereo not drawn) | 3.17 | – | – | – | – | – | – | – | – | – | – | – | –
O=C(CCCCCNC(=O)c1ccc2c(c1)C(=O)OC21c2ccc(O)cc2Oc2cc(O)ccc21)ON1C(=O)CCC1=O | 4 | – | – | – | – | – | – | – | – | – | – | – | –
O=C(CCCCCNC(=O)c1ccc(-c2c3ccc(=O)cc-3oc3cc(O)ccc23)c(C(=O)O)c1)NCCNC(=O)CCc1ccc(S(=O)(=O)N(CC(=O)N/N=C2\C(=O)Nc3ccccc32)c2ccc(Cl)cc2)cc1 | 4.68 | 1.73 | 61 | > 1000 | 135 | – | – | 35 | – | – | – | – | –
CCN1\C(=C/C=C/C=C/C2=[N+](CC)c3cc(S(=O)(=O)[O-])ccc3C2(C)C)C(C)(CCCC(=O)NCCOCCOCCOCCOCc2nnc(N3CC(Oc4ccc(F)cc4Cl)C3)n2-c2ccc(OC)nc2)c2cc(S(=O)(=O)O)ccc21.O=C(O)C(F)(F)F (stereo not drawn) | 3.94 | 1.59 | > 1000 | > 1000 | 509 | 4.03 | 10.9 | – | – | – | – | – | –
CCN1\C(=C/C=C/C=C/C2=[N+](CC)c3cc(S(=O)(=O)[O-])ccc3C2(C)C)C(C)(CCCC(=O)NCCNC(=O)CCc2ccc(S(=O)(=O)N(CC(=O)N/N=C3\C(=O)Nc4ccccc43)c3ccc(Cl)cc3)cc2)c2cc(S(=O)(=O)O)ccc21 (stereo not drawn) | 3.96 | 1.37 | 19.7 | > 1000 | 30.5 | – | – | 14 | – | – | – | – | –
Cc1ccn(Cc2ccc(C(=O)N3Cc4cnn(C)c4Nc4ccccc43)cc2C)n1 | – | – | – | – | – | – | – | – | 27.8 | 18 | 913 | 6.22 | 6.6
